Results reported in patent publication US8569336B2, “Compounds for the treatment of inflammatory disorders” (priority 2008, dated 2013).
Like-named read-outs stand apart in the source and are kept apart here.

Key:
[1] = tested on: TNF-α production from human whole blood; experiment: Inhibition of TNF-α production from human whole blood (hWBA), LPS stimulated, ELISA; format: cell-based; details: Homo sapiens, TNF-α by ELISA, read-out: hWBA (IC50)
[2] = Area under the curve determinations of plasma levels in rats (rrAUC), oral 10 mg/kg; format: in vivo; details: for AUC: rat, read-out: RR AUC (rapid rat AUC, rrAUC)
[3] = molecular target: T1, purified catalytic domain of recombinant human TACE (rhTACEc) (Homo sapiens, UniProt P78536, N452Q/S266A); experiment: TACE kinetic assay: cleavage of internally quenched peptide substrate TNF-FRET 2 (Ki); format: biochemical; details: TNF-FRET 2 substrate
T1 construct: 6xHis (C); made in house; host or cells: baculovirus/Hi5 insect cells

[4] = 3.5 h, human whole blood diluted 1:1, LPS stimulated, 3.5 h
[5] = LPS-stimulated human whole blood
[6] = human whole blood diluted 1:1, LPS stimulated
[7] = plasma, blood collected 0.5-6 h post-dosing
[8] = blood collected 0.5-6 h post-dosing

T1 sequence (P78536 215-477 S266A/N452Q): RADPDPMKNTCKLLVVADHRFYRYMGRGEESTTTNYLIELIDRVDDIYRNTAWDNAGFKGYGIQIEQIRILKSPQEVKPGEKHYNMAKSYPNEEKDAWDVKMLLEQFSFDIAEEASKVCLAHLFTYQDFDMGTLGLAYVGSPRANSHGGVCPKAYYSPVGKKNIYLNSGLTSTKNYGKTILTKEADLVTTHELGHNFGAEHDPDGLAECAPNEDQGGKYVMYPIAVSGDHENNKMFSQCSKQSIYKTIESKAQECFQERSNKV

`COc1ccc2c(c1)C(=O)N(C[C@@]1(c3cc4cc(C5(C)NC(=O)NC5=O)c(C)cc4o3)NC(=O)NC1=O)C2` (stereo partly shown) [Compound 2207] gave an IC50 [1, 4] of 310 nM, an AUC ([2]; plasma 0.5-6 h post-dosing) of 0.063 µM·h and a Ki ([3]; read-out: Ki) of 0.813 nM.
In the case of `COc1ccc2c(c1)C(=O)N(C[C@@]1(c3cc4cnc(-c5cccnc5)cc4o3)NC(=O)NC1=O)C2` [Compound 2232], the IC50 [1, 4] is reported as 1100 nM, the AUC ([2]; plasma 0.5-6 h post-dosing) is reported as 2.22 µM·h and the Ki ([3]; read-out: Ki) is reported as 0.538 nM.
Compound `COc1ccc2c(c1F)C(=O)N(C[C@@]1(c3cc4nc(Cl)c(F)cc4o3)NC(=O)NC1=O)C2` [Compound 1328] has an IC50 [1, 5] of 2680 nM, an AUC ([2]; plasma 0.5-6 h) of 5.61 µM·h and a Ki ([3]; Ki) of 0.49 nM.
Work on `COc1ccc2c(c1)C(=O)N(C[C@@]1(c3cc4nc(NC5CC5)ccc4o3)NC(=O)NC1=O)C2` [Compound 2148] yielded an IC50 [1, 4] of 624 nM, an AUC ([2]; plasma 0.5-6 h post-dosing) of 9.34 µM·h and a Ki ([3]; read-out: Ki) of 0.179 nM.
`COc1ccc2c(c1)C(=O)N(C[C@@]1(c3cc4nc(-c5cccc(C#N)c5)ccc4o3)NC(=O)NC1=O)C2` [Compound 2470] gave an IC50 [1, 6] of 803 nM, an AUC [2, 7] of 22.1 µM·h and a Ki ([3]; read-out: Ki) of 0.578 nM.
For `COc1ccc2c(c1)C(=O)N(C[C@@]1(c3cc4cc(-c5cc(N)n(C)n5)ccc4o3)NC(=O)NC1=O)C2` [Compound 2247], the IC50 [1, 4] was 782 nM, the AUC ([2]; plasma 0.5-6 h post-dosing) was 0.375 µM·h and the Ki ([3]; Ki) was 0.333 nM.
Work on `COc1ccc2c(c1)C(=O)N(C[C@@]1(c3cc4nc(-c5cn[nH]c5)ccc4o3)NC(=O)NC1=O)C2` [Compound 2100] yielded an IC50 [1, 4] of 99.4 nM, an AUC ([2]; plasma 0.5-6 h post-dosing) of 0.104 µM·h and a Ki ([3]; read-out: Ki) of 0.197 nM.
`COc1ccc2c(c1)C(=O)N(C[C@@]1(c3cc4cnc(-c5ccncc5)cc4o3)NC(=O)NC1=O)C2` [Compound 2231] showed an IC50 [1, 4] of 1420 nM, an AUC ([2]; plasma 0.5-6 h post-dosing) of 2.75 µM·h and a Ki ([3]; Ki) of 0.54 nM.
For `COc1ccc2c(c1)C(=O)N(C[C@@]1(c3cc4c(C(N)=O)nccc4o3)NC(=O)NC1=O)C2` [Compound 2401], the IC50 [1, 6] was 270 nM, the AUC [2, 7] was 1.43 µM·h and the Ki ([3]; read-out: Ki) was 0.58 nM.
With `COc1ccc2c(c1)C(=O)N(C[C@@]1(c3cc4cc(-c5ccc(N)nc5)c(F)cc4o3)NC(=O)NC1=O)C2` [Compound 1188] the IC50 [1, 4] was 720 nM, the AUC ([2]; plasma 0.5-6 h post-dosing) was 0.355 µM·h and the Ki ([3]; read-out: Ki) was 0.51 nM.
For `CNC(=O)c1ccc2oc([C@]3(CN4Cc5ccc(OC)cc5C4=O)NC(=O)NC3=O)cc2n1` [Compound 1925], the IC50 [1, 5] was 280 nM, the “RR AUC (rapid rat AUC, rrAUC)” value ([2]; plasma 0.5-6 h) was 1.07 µM·h and the Ki ([3]; read-out: Ki) was 0.86 nM.
`COc1ccc2c(c1)C(=O)N(C[C@@]1(c3cc4ccc(C(=O)NCCN(C)C)cc4o3)NC(=O)NC1=O)C2` [Compound 2412] showed an IC50 [1, 6] of 115 nM, an AUC [2, 7] of 0.104 µM·h and a Ki ([3]; read-out: Ki) of 0.32 nM.
`CCCN1CCN(c2ccc3oc([C@]4(CN5Cc6ccc(OC)c(F)c6C5=O)NC(=O)NC4=O)cc3n2)CC1` [Compound 1708] gave an IC50 [1, 5] of 175 nM and an AUC ([2]; plasma 0.5-6 h) of 10.4 µM·h.
With `COc1ccc2c(c1F)C(=O)N(C[C@@]1(c3cc4cc5c(c(-c6cccnc6)c4o3)C(=O)NC5)NC(=O)NC1=O)C2` [Compound 1310] the AUC ([2]; plasma 0.5-6 h) was 0.614 µM·h.
With `COc1ccc2c(c1)C(=O)N(C[C@@]1(c3cc4nc(N5CC(C)NC(C)C5)ccc4o3)NC(=O)NC1=O)C2` (stereo partly shown) [Compound 2120] the IC50 [1, 4] was 1200 nM and the AUC ([2]; plasma 0.5-6 h post-dosing) was 5.19 µM·h.
For `COc1ccc2c(c1)C(=O)N(C[C@@]1(c3cc4c(C#N)nccc4o3)NC(=O)NC1=O)C2` [Compound 2445], the IC50 [1, 6] was 1240 nM and the “RR AUC (rapid rat AUC, rrAUC)” value [2, 8] was 0.485 µM·h.
`COc1ccc2c(c1)C(=O)N(C[C@@]1(c3cc4nc(-c5ccnn5C)ccc4o3)NC(=O)NC1=O)C2` [Compound 2116] gave an IC50 [1, 4] of 1200 nM and an AUC ([2]; plasma 0.5-6 h post-dosing) of 5.19 µM·h.
`COc1ccc2c(c1F)C(=O)N(C[C@@]1(c3cc4nc(N5CCC(N(C)C)CC5)ccc4o3)NC(=O)NC1=O)C2` [Compound 1298] gave an IC50 [1, 4] of 79 nM and an AUC ([2]; plasma 0.5-6 h post-dosing) of 0.037 µM·h.
In the case of `COc1ccc2c(c1)C(=O)N(C[C@@]1(c3cc4nc(N(c5cn[nH]c5)C5CCN(C)CC5)ccc4o3)NC(=O)NC1=O)C2` [Compound 1703], the AUC ([2]; plasma 0.5-6 h) is reported as 0.064 µM·h and the Ki ([3]; Ki) is reported as 1 nM.
`COc1ccc2c(c1F)C(=O)N(C[C@@]1(c3cc4nc(N5CCNC(=O)C5)ccc4o3)NC(=O)NC1=O)C2` [Compound 1700] gave an AUC ([2]; plasma 0.5-6 h) of 0.105 µM·h and a Ki ([3]; Ki) of 0.6 nM.
With `COc1ccc2c(c1)C(=O)N(C[C@@]1(c3cc4nc(-c5ccc(N6CCOCC6)nc5)ccc4o3)NC(=O)NC1=O)C2` [Compound 2151] the IC50 [1, 4] was 800 nM and the AUC ([2]; plasma 0.5-6 h post-dosing) was 0.692 µM·h.
Compound `COc1ccc2c(c1F)C(=O)N(C[C@@]1(c3cc4nc(N5CC(=O)NC5=O)c(F)cc4o3)NC(=O)NC1=O)C2` [Compound 1330] has an AUC ([2]; plasma 0.5-6 h) of 3.19 µM·h and a Ki ([3]; Ki) of 0.39 nM.
For `CCOC(=O)N1CCc2oc([C@]3(CN4Cc5ccc(OC)cc5C4=O)NC(=O)NC3=O)cc2C1` [Compound 2437], the IC50 [1, 6] was 654 nM and the “RR AUC (rapid rat AUC, rrAUC)” value [2, 8] was 4.026 µM·h.
Compound `COc1ccc2c(c1)C(=O)N(C[C@@]1(c3cc4c(Cl)nc(N)nc4o3)NC(=O)NC1=O)C2` [Compound 2296] has an IC50 [1, 6] of at least 10000 nM and a Ki ([3]; Ki) of 4.59 nM.
With `COc1ccc2c(c1)C(=O)N(C[C@@]1(c3cc4nc(C(N)=O)ccc4o3)NC(=O)NC1=O)C2` [Compound 2457] the IC50 [1, 6] was 200 nM and the “RR AUC (rapid rat AUC, rrAUC)” value [2, 8] was 0.113 µM·h.
